Reference: patent publication US9730934B2, “Quinazoline derivatives substituted by aniline, preparation method and use thereof” (XUANZHU PHARMA CO., LTD., priority 2010, dated 2017)
Where a name gives a salt, the structure may show the parent alone.

Tests used:
Assay in all cases: In vitro enzyme inhibitory activity (Caliper mobility shift, FAM labeled peptide)
Format in all cases: biochemical
Settings in all cases: 28° C., 1 h reaction
[1] = target: HER4 (Homo sapiens (Human), UniProt Q15303)
Experimental: (§1) In Vitro Enzyme Inhibitory Activity of the Present Compounds
HER4: human epidermal growth factor receptor 4 (Carna).
(§2) 1. Formulating the agents to be used in the assay
(§3) (6) 5-fold compound solutions (using 100% DMSO to formulate 50-fold compound solutions having different concentration gradients, and diluting with water by 10 times to obtain 5-fold compound solutions having different concentration gradients);
(§4) 2. Adding 5 μL of a 5-fold compound solution to a 384-well plate;
(§5) 3. Adding 10 μL of a 2.5-fold kinase solution to incubate for 10 min;
(§6) 4. Then adding 10 μL of a 2.5-fold peptide solution, and reacting at 28° C. for 1 h; and
(§7) 5. Finally, adding 25 μL of stop buffer to terminate the reaction, and reading the data with Caliper.
(§8) 6. Curve fitting to obtain an IC50 value. The calculated inhibition ratio (%)=(the maximum conversion rate−the conversion rate)/(the maximum conversion rate−the minimum conversion rate)×100
(§9) The curve fitting was conducted with the Xlfit software to obtain IC50 values.

[2] = target: EGFR (Homo sapiens (Human), UniProt P00533)
Experimental: as §1
EGFR: human epidermal growth factor receptor (Carna);
as §2, §3, §4, §5, §6, §7, §8, §9

[3] = target: HER2 (Homo sapiens (Human), UniProt P04626)
Experimental: as §1
HER2: human epidermal growth factor receptor 2 (Carna);
as §2, §3, §4, §5, §6, §7, §8, §9

Sequence of HER4 (Q15303 26-1308): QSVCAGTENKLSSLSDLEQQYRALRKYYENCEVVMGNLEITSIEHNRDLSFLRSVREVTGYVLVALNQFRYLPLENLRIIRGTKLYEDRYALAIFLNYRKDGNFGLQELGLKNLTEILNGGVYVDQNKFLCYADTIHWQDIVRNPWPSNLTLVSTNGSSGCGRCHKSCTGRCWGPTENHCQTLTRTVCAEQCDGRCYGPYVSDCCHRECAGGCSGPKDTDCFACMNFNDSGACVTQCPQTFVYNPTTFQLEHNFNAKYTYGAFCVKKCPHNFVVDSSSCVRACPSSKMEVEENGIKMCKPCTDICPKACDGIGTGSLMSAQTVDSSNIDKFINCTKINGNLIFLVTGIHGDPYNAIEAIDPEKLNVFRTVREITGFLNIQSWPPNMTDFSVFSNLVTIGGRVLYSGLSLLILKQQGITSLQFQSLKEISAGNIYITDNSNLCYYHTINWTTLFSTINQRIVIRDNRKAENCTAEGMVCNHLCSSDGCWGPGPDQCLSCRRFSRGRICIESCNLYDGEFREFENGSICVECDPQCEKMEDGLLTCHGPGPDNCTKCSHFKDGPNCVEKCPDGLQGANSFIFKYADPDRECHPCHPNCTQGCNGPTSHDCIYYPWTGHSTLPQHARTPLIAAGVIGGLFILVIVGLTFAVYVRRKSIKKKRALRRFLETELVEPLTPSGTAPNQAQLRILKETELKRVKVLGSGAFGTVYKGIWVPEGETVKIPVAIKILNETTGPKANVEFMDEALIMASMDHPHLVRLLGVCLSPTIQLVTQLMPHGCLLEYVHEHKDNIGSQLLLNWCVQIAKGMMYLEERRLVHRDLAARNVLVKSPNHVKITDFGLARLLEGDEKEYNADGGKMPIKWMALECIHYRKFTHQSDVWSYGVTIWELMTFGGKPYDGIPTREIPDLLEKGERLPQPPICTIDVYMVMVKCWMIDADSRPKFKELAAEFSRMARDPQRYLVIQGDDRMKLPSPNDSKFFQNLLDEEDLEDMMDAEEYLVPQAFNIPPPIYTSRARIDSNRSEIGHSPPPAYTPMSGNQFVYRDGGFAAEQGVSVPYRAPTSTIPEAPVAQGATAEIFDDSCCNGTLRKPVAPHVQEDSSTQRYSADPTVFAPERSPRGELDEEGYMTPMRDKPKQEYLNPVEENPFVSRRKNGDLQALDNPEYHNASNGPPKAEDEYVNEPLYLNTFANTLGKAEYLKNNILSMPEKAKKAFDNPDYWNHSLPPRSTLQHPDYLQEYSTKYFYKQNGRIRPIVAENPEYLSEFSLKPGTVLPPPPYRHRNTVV
Sequence of EGFR (P00533 25-1210): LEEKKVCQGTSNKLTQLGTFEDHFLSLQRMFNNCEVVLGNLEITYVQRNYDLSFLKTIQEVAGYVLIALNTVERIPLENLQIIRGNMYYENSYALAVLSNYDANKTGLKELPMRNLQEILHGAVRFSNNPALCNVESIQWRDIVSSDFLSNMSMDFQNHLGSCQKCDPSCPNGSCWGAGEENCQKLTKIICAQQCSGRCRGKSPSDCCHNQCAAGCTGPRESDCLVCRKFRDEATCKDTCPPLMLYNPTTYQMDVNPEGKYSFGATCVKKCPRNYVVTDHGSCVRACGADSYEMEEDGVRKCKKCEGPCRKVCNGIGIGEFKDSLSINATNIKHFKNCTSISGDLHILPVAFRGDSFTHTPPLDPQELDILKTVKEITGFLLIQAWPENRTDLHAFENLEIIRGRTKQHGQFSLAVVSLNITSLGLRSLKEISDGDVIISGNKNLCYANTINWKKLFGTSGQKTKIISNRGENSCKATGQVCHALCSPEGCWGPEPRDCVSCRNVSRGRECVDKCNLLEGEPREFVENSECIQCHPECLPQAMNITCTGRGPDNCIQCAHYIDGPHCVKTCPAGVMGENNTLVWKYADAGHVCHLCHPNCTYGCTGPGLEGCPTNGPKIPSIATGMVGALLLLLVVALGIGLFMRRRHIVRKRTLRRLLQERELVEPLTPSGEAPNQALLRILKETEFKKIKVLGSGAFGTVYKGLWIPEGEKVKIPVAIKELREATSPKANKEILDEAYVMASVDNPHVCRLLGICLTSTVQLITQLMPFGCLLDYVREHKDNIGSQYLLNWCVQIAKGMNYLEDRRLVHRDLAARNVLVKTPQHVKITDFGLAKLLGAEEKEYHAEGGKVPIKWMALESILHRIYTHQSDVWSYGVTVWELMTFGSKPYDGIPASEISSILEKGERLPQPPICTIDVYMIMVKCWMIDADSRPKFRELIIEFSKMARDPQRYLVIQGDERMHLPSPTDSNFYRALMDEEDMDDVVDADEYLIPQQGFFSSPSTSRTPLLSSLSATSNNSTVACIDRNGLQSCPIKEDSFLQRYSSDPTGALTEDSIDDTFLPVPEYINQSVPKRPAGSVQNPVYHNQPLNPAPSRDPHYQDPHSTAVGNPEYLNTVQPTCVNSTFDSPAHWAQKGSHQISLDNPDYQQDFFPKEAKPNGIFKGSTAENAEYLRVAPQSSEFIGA
Sequence of HER2 (P04626 23-1255): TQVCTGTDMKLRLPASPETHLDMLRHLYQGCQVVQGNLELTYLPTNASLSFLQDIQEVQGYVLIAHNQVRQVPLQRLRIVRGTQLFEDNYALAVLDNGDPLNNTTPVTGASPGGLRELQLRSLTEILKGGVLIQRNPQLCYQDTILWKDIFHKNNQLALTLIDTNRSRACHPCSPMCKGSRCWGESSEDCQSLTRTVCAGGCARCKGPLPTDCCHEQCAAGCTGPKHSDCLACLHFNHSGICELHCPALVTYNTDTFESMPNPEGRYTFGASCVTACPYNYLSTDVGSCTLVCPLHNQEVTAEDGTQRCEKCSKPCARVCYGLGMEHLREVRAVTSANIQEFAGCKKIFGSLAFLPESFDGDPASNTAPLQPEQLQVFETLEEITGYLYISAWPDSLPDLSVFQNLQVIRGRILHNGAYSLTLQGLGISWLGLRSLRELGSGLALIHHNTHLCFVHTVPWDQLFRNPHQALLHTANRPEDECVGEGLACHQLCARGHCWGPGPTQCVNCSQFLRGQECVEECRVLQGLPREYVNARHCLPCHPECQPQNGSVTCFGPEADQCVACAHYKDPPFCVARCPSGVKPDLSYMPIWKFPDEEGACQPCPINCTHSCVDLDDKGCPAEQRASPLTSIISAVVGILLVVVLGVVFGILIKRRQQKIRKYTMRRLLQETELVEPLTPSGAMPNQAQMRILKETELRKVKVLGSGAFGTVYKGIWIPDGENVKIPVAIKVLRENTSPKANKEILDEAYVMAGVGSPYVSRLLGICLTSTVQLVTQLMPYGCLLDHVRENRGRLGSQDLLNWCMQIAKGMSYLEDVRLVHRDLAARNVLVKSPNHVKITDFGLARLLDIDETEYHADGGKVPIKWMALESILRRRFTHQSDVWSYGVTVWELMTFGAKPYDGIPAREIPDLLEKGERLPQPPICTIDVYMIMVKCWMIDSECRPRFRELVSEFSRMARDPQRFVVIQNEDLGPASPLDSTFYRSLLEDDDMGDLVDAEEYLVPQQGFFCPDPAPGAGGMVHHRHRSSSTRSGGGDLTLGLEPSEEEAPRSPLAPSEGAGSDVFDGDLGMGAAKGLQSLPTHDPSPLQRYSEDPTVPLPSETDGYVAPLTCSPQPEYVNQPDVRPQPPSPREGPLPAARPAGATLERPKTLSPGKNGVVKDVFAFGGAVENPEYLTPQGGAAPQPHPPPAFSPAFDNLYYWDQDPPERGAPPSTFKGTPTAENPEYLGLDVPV

SMILES	IC50 [1] [nM]	IC50 [2] [nM]	IC50 [3] [nM]
C=CC(=O)Nc1cc2c(Nc3ccc(F)c(Cl)c3)ncnc2cc1OCC1COC2(CCN(C)CC2)C1 (stereo not shown) [Compound 6, N-[4-(3-chloro-4-fluorophenylamino)-7-((8-methyl-1-oxa-8-azaspiro[4.5]decan-3-yl)methoxy)quinazolin-6-yl]-acrylamide]	1.4	1	7.1
C=CC(=O)Nc1cc2c(Nc3ccc(F)c(Cl)c3)ncnc2cc1OCC1CCC2(CCN(C)CC2)O1 (stereo not shown) [Compound 7, N-[4-(3-chloro-4-fluorophenylamino)-7-(8-methyl-1-oxa-8-azaspiro[4.5]decan-2-ylmethoxy)quinazolin-6-yl]-acrylamide]	1.7	–	4.3
C=CC(=O)Nc1cc2c(Nc3ccc(F)c(Cl)c3)ncnc2cc1OCCC1C2CCC1CN(C)C2 (stereo not shown) [Compound 11, N-[4-(3-chloro-4-fluorophenylamino)-7-(2-(3-methyl-3-azabicyclo[3.2.1]octan-8-yl)ethoxy)quinazolin-6-yl]-acrylamide]	8.3	0.8	12
C=CC(=O)Nc1cc2c(Nc3ccc(F)c(Cl)c3)ncnc2cc1OCCC1CC2(CCN(C)CC2)C1 [Compound 19 hydrochloride, N-[4-(3-chloro-4-fluorophenylamino)-7-(2-(7-methyl-7-azaspiro[3.5]nonan-2-yl)ethoxy)quinazolin-6-yl]-acrylamide hydrochloride]	3.7	0.56	3.1

More lines, now with the values ahead:

IC50 [1] [nM]	IC50 [2] [nM]	IC50 [3] [nM]	SMILES
3.4	–	6.5	C=CC(=O)Nc1cc2c(Nc3ccc(F)c(Cl)c3)ncnc2cc1OCC[C@@H]1[C@H]2CN(C)C[C@@H]12 [Compound 8]
1.2	0.39	2.6	C=CC(=O)Nc1cc2c(Nc3ccc(F)c(Cl)c3)ncnc2cc1OCCC1CC12CCN(C)CC2 (stereo not shown) [Compound 14, N-[4-(3-chloro-4-fluorophenylamino)-7-(2-(6-methyl-6-azaspiro[2.5]octan-1-yl)ethoxy)quinazolin-6-yl]-acrylamide]
1.9	1	6.5	C=CC(=O)Nc1cc2c(Nc3ccc(F)c(Cl)c3)ncnc2cc1OCC1CC2(CCN(C)CC2)C1 [Compound 18, N-[4-(3-chloro-4-fluorophenylamino)-7-((7-methyl-7-azaspiro[3.5]nonan-2-yl)methoxy)quinazolin-6-yl]-acrylamide]
